One experiment relates to L6. Description: (§1) Induction of mitochondrial uncoupled respiration in rat L6 myoblasts assessed as increase in oxygen consumption rate at 50 uM measured by Agilent Seahorse XF analyzer. Format: functional.
A short description of experiment [1]: as §1. Format: functional.
Experiment [2] can be described thus: Induction of mitochondrial uncoupled respiration in rat L6 myoblasts assessed as increase in oxygen consumption rate at 10 uM measured by Agilent Seahorse XF analyzer. Format: functional.
The nature of experiment [3]: Induction of mitochondrial uncoupled respiration in rat L6 myoblasts assessed as increase in oxygen consumption rate measured by Agilent Seahorse XF analyzer. The experiment is classed as functional, cell-based.

The values that follow come from ChEMBL document CHEMBL5107991, “Conversion of oxadiazolo[3,4-b]pyrazines to imidazo[4,5-b]pyrazines via a tandem reduction-cyclization sequence generates new mitochondrial uncouplers” (Bioorg Med Chem Lett, 2022).

pEC50: −log10 of the molar value. Calls of active or inactive are those of the source. The calls are words filed in the database; no cut-off is given here.

On to `Cc1ccc(Nc2nc3nc(C(F)(F)F)[nH]c3nc2Nc2ccc(C)cc2)cc1`, for which, in the experiment on L6, the result was Active.

Consider `Fc1ccccc1Nc1nc2nc(C(F)(F)F)[nH]c2nc1Nc1ccccc1`, for which the Activity in experiment [1] is on record as 50%.

As to `FC(F)(F)c1cc(Nc2nc3nc(C(F)(F)F)[nH]c3nc2Nc2cc(C(F)(F)F)cc(C(F)(F)F)c2)cc(C(F)(F)F)c1`, the Activity in experiment [1] is on record as 100%.

On to `FC(F)(F)c1nc2nc(Nc3ccccc3C(F)(F)F)c(Nc3ccccc3C(F)(F)F)nc2[nH]1`, for which the Activity in experiment [2] is reported as greater than 150%.

`Fc1ccccc1Nc1nc2nc(C(F)(F)F)[nH]c2nc1NC1CCCCC1`: the Activity in experiment [1] was 125%.

Take `Fc1cccc(Nc2nc3nc(C(F)(F)F)[nH]c3nc2Nc2cccc(F)c2F)c1F`: in experiment [2], the Activity is on record as greater than 150%.

Consider `Oc1nc2nonc2nc1Nc1ccc(OC(F)(F)F)cc1`, for which the pEC50 in experiment [3] is 5.37.

For `Cc1ccc(Nc2nc3[nH]c(C(F)(F)F)nc3nc2Nc2ccccc2F)cc1`, the Activity in experiment [1] came to 50%.

In the case of `Fc1cccc(Nc2nc3[nH]c(C(F)(F)F)nc3nc2Nc2ccccc2F)c1`, the figures for the Activity in experiment [1] and in experiment [2] were 150% and 100%, respectively.

With `Fc1ccc(C(F)(F)F)cc1Nc1nc2nc(C(F)(F)F)[nH]c2nc1Nc1cc(C(F)(F)F)ccc1F`, the Activity in experiment [2] was found to be 100%.

`FC(F)(F)c1nc2nc(Nc3ccccc3)c(Nc3ccccc3)nc2[nH]1`: the result in the experiment on L6 was Active.

As for `Fc1ccccc1Nc1nc2nc(C(F)(F)F)[nH]c2nc1Nc1ccccc1F`, the Activity in experiment [1] amounted to 150%; in experiment [2], 50%.

As for `Fc1c(Nc2nc3nc(C(F)(F)F)[nH]c3nc2Nc2cccc(C(F)(F)F)c2F)cccc1C(F)(F)F`, the Activity in experiment [2] is on record as greater than 150%.

Take `Cn1c(C(F)(F)F)nc2nc(Nc3cc(C(F)(F)F)cc(C(F)(F)F)c3)c(Nc3cc(C(F)(F)F)cc(C(F)(F)F)c3)nc21`: the results for the Activity in experiment [1] and in experiment [2] were greater than 300% and 100%, respectively.

For `Cn1c(C(F)(F)F)nc2nc(Nc3cc(C(F)(F)F)ccc3F)c(Nc3cc(C(F)(F)F)ccc3F)nc21`, the Activity in experiment [1] is greater than 200%.

As usually defined, the pEC50 is −log10 of the EC50, conventionally taken in molar units.
